How the values were obtained:
[1] = biological target: ErbB2 with Exon 20 YVMA insertion (HER2-YVMA) (Homo sapiens (Human), UniProt P04626, INS775YVMA); assay: Cellular Phosphorylation Assay, Assay 4 (constitutive ErbB2 phosphorylation, NIH 3T3 cells); assay type: cell-based
BCRP = BCRP (Homo sapiens (Human), UniProt Q9UNQ0); assay: BCRP MDCKII efflux assay (Assay 7); assay type: in vitro ADME; conditions: dog; efflux ratio Papp(B-A)/Papp(A-B), BCRP MDCKII cells; read-out: Assay 7 Pe Ratio
Description: Assay conditions included with and without the BCRP-specific inhibitor, KO143, at a concentration of 0.3 μM to ascertain the contribution of BCRP to the efflux value of the test compound.
Final organic concentration in the assay was 1%.

EGFR wild type (EGFR WT) = EGFR wild type (EGFR WT) (Homo sapiens (Human), UniProt P00533); assay: Cellular Phosphorylation Assay, Assay 5 (EGF-stimulated EGFR phosphorylation, NIH 3T3 cells); assay type: cell-based
Sequence of EGFR wild type (EGFR WT) (P00533 25-1210): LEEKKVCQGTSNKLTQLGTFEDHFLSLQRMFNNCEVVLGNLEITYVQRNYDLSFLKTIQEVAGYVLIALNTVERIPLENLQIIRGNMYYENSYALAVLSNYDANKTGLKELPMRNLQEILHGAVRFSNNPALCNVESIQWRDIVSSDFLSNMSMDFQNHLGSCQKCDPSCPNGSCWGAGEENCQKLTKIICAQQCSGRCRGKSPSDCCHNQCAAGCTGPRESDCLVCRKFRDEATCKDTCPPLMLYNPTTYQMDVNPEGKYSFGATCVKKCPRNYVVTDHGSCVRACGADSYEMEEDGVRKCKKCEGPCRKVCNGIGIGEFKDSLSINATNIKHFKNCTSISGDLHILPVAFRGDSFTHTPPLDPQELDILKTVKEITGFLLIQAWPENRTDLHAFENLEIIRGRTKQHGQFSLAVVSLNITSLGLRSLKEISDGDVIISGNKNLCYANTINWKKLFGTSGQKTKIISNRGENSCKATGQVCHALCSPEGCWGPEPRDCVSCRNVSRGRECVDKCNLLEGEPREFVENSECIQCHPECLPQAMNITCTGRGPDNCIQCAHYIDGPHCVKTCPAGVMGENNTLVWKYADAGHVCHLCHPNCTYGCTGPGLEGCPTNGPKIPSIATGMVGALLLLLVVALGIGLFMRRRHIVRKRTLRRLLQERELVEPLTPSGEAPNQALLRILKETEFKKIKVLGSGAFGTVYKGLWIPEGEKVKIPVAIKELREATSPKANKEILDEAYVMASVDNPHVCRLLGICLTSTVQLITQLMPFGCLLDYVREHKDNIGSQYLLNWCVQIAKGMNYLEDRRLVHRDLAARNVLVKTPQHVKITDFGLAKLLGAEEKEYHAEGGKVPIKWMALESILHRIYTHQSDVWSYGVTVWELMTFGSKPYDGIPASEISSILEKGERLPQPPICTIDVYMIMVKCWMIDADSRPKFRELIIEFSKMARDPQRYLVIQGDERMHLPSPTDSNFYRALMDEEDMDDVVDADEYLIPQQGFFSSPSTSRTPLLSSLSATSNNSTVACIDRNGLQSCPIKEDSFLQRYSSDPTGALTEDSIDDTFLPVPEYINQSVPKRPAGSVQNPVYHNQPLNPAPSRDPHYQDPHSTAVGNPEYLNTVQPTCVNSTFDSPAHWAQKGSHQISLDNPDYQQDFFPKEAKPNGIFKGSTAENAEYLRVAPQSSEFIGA

EGFR = EGFR (Homo sapiens (Human), UniProt P00533); assay: ErbB Enzyme Assay (HTRF KinEASE-TK), Assay 3; assay type: biochemical
Sequence of EGFR (P00533 25-1210): as above

ErbB2 WT = ErbB2 WT (Homo sapiens (Human), UniProt P04626); assay: ErbB Enzyme Assay (HTRF KinEASE-TK), Assay 2; assay type: biochemical
[2] = cellular ErbB2 YVMA phosphorylation
[3] = cellular EGFR WT phosphorylation, EGF-stimulated

Sequence of ErbB2 with Exon 20 YVMA insertion (HER2-YVMA) (P04626 other isoform, or with tags, fused parts or gaps ins YVMA behind 775): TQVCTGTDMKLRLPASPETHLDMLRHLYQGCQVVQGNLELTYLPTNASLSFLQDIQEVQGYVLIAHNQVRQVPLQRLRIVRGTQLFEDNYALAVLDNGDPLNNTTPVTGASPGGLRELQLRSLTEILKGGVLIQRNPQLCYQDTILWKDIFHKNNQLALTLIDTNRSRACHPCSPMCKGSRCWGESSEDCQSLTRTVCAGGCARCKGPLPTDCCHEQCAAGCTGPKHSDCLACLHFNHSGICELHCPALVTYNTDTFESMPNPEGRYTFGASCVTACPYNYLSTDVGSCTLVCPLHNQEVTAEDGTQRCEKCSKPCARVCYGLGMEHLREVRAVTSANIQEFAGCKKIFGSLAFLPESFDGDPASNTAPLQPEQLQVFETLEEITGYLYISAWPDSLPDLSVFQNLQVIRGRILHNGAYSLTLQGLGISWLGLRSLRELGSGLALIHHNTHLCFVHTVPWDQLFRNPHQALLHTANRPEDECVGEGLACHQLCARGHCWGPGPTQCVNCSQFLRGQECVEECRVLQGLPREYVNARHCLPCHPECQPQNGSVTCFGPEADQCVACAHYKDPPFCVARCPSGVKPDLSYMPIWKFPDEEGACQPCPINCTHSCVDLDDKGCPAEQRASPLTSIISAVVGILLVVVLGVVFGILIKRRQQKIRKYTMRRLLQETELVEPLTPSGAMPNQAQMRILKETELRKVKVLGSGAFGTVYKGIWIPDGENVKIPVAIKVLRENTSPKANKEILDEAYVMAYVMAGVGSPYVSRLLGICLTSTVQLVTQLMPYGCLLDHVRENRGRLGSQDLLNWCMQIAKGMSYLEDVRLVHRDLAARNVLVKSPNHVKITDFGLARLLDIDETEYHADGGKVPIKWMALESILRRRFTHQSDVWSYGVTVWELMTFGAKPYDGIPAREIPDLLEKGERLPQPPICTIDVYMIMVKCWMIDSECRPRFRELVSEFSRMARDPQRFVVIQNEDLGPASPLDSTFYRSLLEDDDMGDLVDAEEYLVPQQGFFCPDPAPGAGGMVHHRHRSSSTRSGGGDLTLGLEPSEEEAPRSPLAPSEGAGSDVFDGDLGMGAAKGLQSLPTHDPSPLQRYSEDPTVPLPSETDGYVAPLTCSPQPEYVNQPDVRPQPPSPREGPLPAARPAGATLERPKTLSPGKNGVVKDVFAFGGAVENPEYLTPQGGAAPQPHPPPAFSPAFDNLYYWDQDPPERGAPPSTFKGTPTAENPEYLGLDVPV
Sequence of BCRP (Q9UNQ0 whole entry): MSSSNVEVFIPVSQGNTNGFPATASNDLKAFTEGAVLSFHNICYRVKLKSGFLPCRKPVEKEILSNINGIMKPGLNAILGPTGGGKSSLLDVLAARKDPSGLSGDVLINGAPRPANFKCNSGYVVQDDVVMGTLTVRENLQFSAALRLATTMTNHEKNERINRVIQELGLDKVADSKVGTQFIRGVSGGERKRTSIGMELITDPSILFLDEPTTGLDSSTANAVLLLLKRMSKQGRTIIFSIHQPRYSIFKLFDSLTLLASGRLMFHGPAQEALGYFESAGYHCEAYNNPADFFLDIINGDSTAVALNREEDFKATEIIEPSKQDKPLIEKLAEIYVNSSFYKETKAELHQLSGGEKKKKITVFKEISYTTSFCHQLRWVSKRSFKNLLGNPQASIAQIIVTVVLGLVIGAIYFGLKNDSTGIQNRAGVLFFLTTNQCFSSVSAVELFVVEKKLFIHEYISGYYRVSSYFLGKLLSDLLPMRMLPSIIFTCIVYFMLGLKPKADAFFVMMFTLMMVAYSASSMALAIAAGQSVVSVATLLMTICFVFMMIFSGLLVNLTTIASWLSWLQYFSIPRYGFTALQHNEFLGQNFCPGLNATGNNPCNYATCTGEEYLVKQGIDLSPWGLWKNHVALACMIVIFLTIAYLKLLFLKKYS

SMILES | IC50 ([1]; ErbB2 YVMA phosphorylation) [nM] | efflux ratio at 2 h, 1 µM (BCRP) | IC50 (EGFR wild type (EGFR WT); EGF-stimulated EGFR WT phosphorylation) [nM] | IC50 (EGFR; EGFR enzyme) [nM] | IC50 (ErbB2 WT; ErbB2 WT enzyme) [nM] | IC50 [1, 2] [nM] | IC50 (EGFR wild type (EGFR WT); [3]) [nM] | IC50 (EGFR; EGFR enzyme assay) [nM] | IC50 (ErbB2 WT; ErbB2 WT enzyme assay) [nM]
C=CC(=O)N1C[C@@H]2C[C@H]1CN(c1ccc3ncnc(Nc4cc(Cl)c(Oc5ccc6c(c5)ncn6C)cc4F)c3n1)C2 [Example 248] | 14.4 | 15.2 | ≥ 5000 | ≥ 10000 | 108 |  |  |  | 
C=CC(=O)N1CCN(c2ccc3ncnc(Nc4ccc(Oc5ccn6ncnc6c5)c(C)c4F)c3n2)C[C@H]1C(C)C [Example 267] |  | 1.7 |  |  |  | 29.8 | 1070 | 8970 | 45.8
C=CC(=O)N1C[C@@H]2CC(c3ccc4ncnc(Nc5ccc(Oc6ccn7ncnc7c6)c(C)c5F)c4n3)C[C@H]1C2 (some centres unmarked) [Example 268] |  | 11.8 |  |  |  | 33.8 | ≥ 5000 | 4780 | 156
C=CC(=O)N1CCC(c2ccc3ncnc(Nc4ccc(Oc5cnc6c(c5)ncn6C)c(Cl)c4)c3n2)CC1 [Example 271] |  | 37 |  |  |  | 31.6 | ≥ 5000 | 3450 | 51.9
C=CC(=O)N1CCC(c2ccc3ncnc(Nc4ccc(Oc5cnc6c(c5)ncn6C)c(C)c4)c3n2)CC1 [Example 273] |  | 15.3 |  |  |  | 25.7 | ≥ 5000 | 5640 | 76.3
C=CC(=O)N1CCN(c2ccc3ncnc(Nc4ccc(Oc5cc(F)c6c(c5)ncn6C)c(C)c4)c3n2)CC1 [Example 276] |  | 25.2 |  |  |  | 6.7 | 302 | 350 | 10
C=CC(=O)N1CCN(c2ccc3ncnc(Nc4ccc(Oc5cc(F)c6c(c5)ncn6C)c(C)c4)c3n2)CC1(C)C [Example 277] |  | 7.3 |  |  |  | 12.5 | 975 | 992 | 23.7
C=CC(=O)N1CC(c2ccc3ncnc(Nc4ccc(Oc5ccn6ncnc6c5)c(C)c4F)c3n2)C1 [Example 280] |  | 8.7 |  |  |  | 21.1 | 1890 | 2090 | 50.4
C=CC(=O)N1CCN(c2ccc3ncnc(Nc4ccc(Oc5cc(F)c6c(c5)ncn6C)c(C)c4)c3n2)C[C@H]1CC [Example 282] |  | 7.6 |  |  |  | 14.4 | 1230 | 2350 | 12.9
C=CC(=O)N1[C@H](C)CN(c2ccc3ncnc(Nc4ccc(Oc5ccn6ncnc6c5)c(Cl)c4F)c3n2)C[C@@H]1C [Example 288] |  | 4.4 |  |  |  | 10.5 | 778 | 1340 | 11
C=CC(=O)N1CC2(CCN2c2ccc3ncnc(Nc4ccc(Oc5ccn6ncnc6c5)c(C)c4F)c3n2)C1 [Example 289] |  | 26 |  |  |  | 53.7 | ≥ 5000 | 2870 | 22.4
C=CC(=O)N1C[C@H]2C[C@@H]1CN(c1ccc3ncnc(Nc4cc(Cl)c(Oc5ccn6ncnc6c5)cc4F)c3n1)C2 [Example 292] |  | 15.6 |  |  |  | 71 | ≥ 5000 | ≥ 10000 | 75.5
C=CC(=O)N1C[C@H]2C[C@@H]1CN(c1ccc3ncnc(Nc4cc(Cl)c(Oc5cnc6c(c5)ncn6C)cc4F)c3n1)C2 [Example 294] |  | 7.2 |  |  |  | 22.2 | ≥ 5000 | ≥ 10000 | 1170
C=CC(=O)N1C[C@H]2C[C@@H]1CN(c1ccc3ncnc(Nc4ccc(Oc5ccn6ncnc6c5)c(Cl)c4F)c3n1)C2 [Example 304] |  | 13.8 |  |  |  | 11.6 | 1670 | 757 | 16.9
C=CC(=O)N1C[C@@H]2CN(c3ccc4ncnc(Nc5ccc(Oc6ccn7ncnc7c6)c(C)c5F)c4n3)C[C@@H]21 [Example 318] |  | 12.8 |  |  |  | 29.8 | 2050 | 1380 | 47.3
C#CC1CN(c2ccc3ncnc(Nc4ccc(Oc5ccn6ncnc6c5)c(C)c4F)c3n2)CCN1C(=O)C=C (centres unmarked) [Example 322] |  | 11.3 |  |  |  | 15.3 | 431 | 489 | 8.1
C=CC(=O)N1C[C@@H]2CN(c3ccc4ncnc(Nc5ccc(Oc6ccc7c(c6)ncn7C)c(C)c5F)c4n3)C[C@@H]21 [Example 323] |  | 6.7 |  |  |  | 23.8 | ≥ 5000 | ≥ 10000 | 36.4
C=CC(=O)N1C2CC1CN(c1ccc3ncnc(Nc4ccc(Oc5ccc6c(c5)ncn6C)c(Cl)c4F)c3n1)C2 [Example 325] |  | 10.3 |  |  |  | 11.6 | 556 | 255 | 21.3
C=CC(=O)N1C[C@H]2CC[C@@H]1CN2c1ccc2ncnc(Nc3ccc(Oc4ccn5ncnc5c4)c(Cl)c3F)c2n1 [Example 328] |  | 7.7 |  |  |  | 15.7 | 1500 | 692 | 50
C=CC(=O)N1CC2CC(C1)N2c1ccc2ncnc(Nc3ccc(Oc4ccc5c(c4)ncn5C)c(C)c3F)c2n1 [Example 335] |  | 3 |  |  |  | 15.4 | ≥ 5000 | ≥ 10000 | 164
C=CC(=O)N1CCN(c2ccc3ncnc(Nc4cc(C)c(Oc5ccc6c(c5)ncn6C)cc4F)c3n2)CC12CC2 [Example 340] |  | 8.9 |  |  |  | 19.6 | 2020 | 881 | 19.5
C=CC(=O)N1CCN(c2ccc3ncnc(Nc4cc(Cl)c(Oc5ccn6ncnc6c5)cc4F)c3n2)C[C@@H]1COC [Example 346] |  | 14.2 |  |  |  | 15.4 | 1440 | 1370 | 14.3
C=CC(=O)N(C)[C@H]1CCN(c2ccc3ncnc(Nc4cc(C)c(Oc5ccn6ncnc6c5)cc4F)c3n2)C1 [Example 351] |  | 6.4 |  |  |  | 31 | ≥ 5000 | 2860 | 66.4
C=CC(=O)N1C[C@H]2C[C@@H]1CN(c1ccc3ncnc(Nc4cc(C)c(Oc5cnc6c(c5)ncn6C)cc4F)c3n1)C2 [Example 353] |  | 17.2 |  |  |  | 49.5 | ≥ 5000 | ≥ 10000 | 474
C=CC(=O)N1CCN(c2ccc3ncnc(Nc4cc(C)c(Oc5cnc6c(c5)ncn6C)cc4F)c3n2)CC12CC2 [Example 354] |  | 13.4 |  |  |  | 8.8 | ≥ 5000 | ≥ 10000 | 31.6
C=CC(=O)N1CCN(c2ccc3ncnc(Nc4ccc(Oc5ccn6ncnc6c5)c(C)c4F)c3n2)C[C@H]1COC [Example 358] |  | 8.5 |  |  |  | 2.9 | 83.2 | 237 | 10
C=CC(=O)N1[C@H](C)CN(c2ccc3ncnc(Nc4ccc(Oc5cc(F)c6c(c5)ncn6C)c(C)c4)c3n2)C[C@@H]1C [Example 359] |  | 14.4 |  |  |  | 21 | ≥ 5000 | 3370 | 47.2
C=CC(=O)N1CCN(c2ccc3ncnc(Nc4ccc(Oc5ccn6ncnc6c5)c(C)c4F)c3n2)C[C@@H]1COC [Example 362] |  | 7.4 |  |  |  | 5.5 | 818 | 1080 | 9.7

Reference: patent publication US12447153B2, “HER2 mutation inhibitors” (Array BioPharma Inc., priority 2021, dated 2025)
